From article PMC3177607 (Bioorganic & medicinal chemistry letters, 2008)
Read-outs that look alike come from different tables or passages of the source.

Columns and labels:
[1] = target: T1, M2 (Homo sapiens, UniProt P08172); test: M2 functional activation; type: cell-based
T1 sequence (P08172 1-466): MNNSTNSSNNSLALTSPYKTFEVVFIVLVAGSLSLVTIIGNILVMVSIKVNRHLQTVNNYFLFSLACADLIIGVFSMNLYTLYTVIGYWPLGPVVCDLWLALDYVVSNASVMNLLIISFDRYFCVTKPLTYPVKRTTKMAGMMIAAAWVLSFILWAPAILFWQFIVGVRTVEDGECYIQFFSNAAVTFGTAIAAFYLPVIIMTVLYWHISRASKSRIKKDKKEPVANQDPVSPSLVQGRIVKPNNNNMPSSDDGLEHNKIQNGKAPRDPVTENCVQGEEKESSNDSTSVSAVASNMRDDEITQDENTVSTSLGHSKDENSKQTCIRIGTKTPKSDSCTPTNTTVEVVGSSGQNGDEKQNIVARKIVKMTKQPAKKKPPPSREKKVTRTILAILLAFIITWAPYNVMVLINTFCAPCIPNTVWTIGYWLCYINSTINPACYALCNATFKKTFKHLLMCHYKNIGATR

[2] = target: M3 (Homo sapiens, UniProt P20309); test: M3 functional activation; type: cell-based
[3] = target: T2, M4 (Homo sapiens, UniProt P08173); test: M4 functional activation; type: cell-based
T2 sequence (P08173 1-479): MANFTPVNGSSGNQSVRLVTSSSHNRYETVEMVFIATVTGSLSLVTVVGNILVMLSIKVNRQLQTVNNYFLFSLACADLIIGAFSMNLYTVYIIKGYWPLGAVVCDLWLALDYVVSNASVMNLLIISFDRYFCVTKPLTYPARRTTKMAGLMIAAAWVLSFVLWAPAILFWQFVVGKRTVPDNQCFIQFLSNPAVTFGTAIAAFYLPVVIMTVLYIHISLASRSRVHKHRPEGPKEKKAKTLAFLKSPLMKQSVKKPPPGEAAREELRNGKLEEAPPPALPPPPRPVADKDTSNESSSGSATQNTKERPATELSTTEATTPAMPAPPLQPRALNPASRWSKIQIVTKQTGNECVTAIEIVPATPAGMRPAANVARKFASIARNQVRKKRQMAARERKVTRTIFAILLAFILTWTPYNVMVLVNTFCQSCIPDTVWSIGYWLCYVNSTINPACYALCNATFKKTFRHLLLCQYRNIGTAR

[4] = target: T3, M5 (Homo sapiens, UniProt P08912); test: M5 functional activation; type: cell-based
T3 sequence (P08912 1-532): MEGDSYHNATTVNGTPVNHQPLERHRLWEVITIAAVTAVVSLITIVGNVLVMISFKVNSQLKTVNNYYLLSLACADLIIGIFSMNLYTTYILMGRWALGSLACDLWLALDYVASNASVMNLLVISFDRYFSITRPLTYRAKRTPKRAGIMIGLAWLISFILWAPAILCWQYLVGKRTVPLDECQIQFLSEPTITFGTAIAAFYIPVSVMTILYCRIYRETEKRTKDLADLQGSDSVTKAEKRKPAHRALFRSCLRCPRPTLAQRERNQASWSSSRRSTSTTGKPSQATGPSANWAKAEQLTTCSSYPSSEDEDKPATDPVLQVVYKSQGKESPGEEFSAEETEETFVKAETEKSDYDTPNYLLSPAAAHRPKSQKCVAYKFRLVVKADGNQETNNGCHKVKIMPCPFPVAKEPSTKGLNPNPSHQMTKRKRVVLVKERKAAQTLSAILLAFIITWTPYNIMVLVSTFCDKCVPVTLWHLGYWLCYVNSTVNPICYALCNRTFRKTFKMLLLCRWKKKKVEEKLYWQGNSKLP

[5] = target: T4, D2 (Homo sapiens, UniProt P14416); test: D2 inhibition; type: cell-based
[6] = target: T5, M1 (Rattus norvegicus, UniProt P08482); test: 10 μM single point M1 activation screen; type: cell-based; details: in triplicate, relative to ACh, CCh and TBPB controls
T5 sequence (P08482 1-460): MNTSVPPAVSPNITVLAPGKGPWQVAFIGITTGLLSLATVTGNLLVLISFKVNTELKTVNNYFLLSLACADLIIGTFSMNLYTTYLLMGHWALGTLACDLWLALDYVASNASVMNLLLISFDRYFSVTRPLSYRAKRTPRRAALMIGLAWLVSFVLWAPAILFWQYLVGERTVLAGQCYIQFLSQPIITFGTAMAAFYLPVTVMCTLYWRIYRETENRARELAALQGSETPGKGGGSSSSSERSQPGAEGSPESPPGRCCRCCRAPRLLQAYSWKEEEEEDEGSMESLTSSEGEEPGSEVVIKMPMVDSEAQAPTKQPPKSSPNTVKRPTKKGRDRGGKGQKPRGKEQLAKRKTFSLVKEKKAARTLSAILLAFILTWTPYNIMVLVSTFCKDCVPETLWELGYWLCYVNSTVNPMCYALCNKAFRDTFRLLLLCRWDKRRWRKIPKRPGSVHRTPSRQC

[7] = target: T4, D2; details: cited from earlier work

T4 sequence (P14416 whole entry): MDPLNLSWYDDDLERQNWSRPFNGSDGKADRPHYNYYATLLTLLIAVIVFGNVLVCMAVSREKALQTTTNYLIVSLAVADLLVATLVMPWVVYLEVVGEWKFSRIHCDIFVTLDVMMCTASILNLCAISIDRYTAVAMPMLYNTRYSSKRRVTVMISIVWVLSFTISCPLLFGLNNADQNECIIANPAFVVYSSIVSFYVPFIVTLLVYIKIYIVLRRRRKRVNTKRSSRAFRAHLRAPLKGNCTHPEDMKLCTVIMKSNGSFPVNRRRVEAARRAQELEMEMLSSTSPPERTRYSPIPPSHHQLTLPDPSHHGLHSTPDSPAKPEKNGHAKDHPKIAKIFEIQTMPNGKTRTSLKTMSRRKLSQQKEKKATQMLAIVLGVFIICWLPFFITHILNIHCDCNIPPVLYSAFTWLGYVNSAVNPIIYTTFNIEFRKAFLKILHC
Sequence of M3 (P20309 whole entry): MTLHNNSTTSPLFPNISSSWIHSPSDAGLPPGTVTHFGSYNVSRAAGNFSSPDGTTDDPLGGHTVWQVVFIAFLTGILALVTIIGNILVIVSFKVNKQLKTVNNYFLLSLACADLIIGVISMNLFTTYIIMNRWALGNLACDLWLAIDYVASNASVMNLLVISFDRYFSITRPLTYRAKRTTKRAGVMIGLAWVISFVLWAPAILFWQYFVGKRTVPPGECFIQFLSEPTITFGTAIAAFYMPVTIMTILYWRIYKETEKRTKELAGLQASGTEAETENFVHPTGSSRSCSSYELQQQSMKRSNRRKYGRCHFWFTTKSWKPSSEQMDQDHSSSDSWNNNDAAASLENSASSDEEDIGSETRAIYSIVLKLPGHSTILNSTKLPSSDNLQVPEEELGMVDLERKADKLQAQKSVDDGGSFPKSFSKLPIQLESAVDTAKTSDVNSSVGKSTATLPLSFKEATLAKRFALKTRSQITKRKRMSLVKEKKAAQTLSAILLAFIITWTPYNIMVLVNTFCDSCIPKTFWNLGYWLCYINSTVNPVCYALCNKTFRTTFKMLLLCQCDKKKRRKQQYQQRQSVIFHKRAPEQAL

## O=c1[nH]c2ccccc2n1C1CCN(C2CCN(S(=O)(=O)c3ccccc3)CC2)CC1 [9c]
[1]
  EC50: > 30000 nM
[2]
  EC50: > 30000 nM
[3]
  EC50: > 30000 nM
[4]
  EC50: > 30000 nM
[5]; read-out: inhibition of D2
  inhibition at 10 µM: ~10%
[6]
  M1 activation, single point screen: activated M1

## O=C(Nc1cccc(SC(F)(F)F)c1)N1CCC(N2CCC(n3c(=O)[nH]c4ccccc43)CC2)CC1 [10i]
[6]
  M1 activation, single point screen: activated M1

## O=c1[nH]c2ccc(F)cc2n1C1CCN(C2CCN(S(=O)(=O)c3ccccc3)CC2)CC1 [14c]
[5]; at concentrations up to 10 μM
  inhibition of D2: did not inhibit

## O=c1[nH]c2ccccc2n1C1CCN(C2CCN(Cc3ccccc3C(F)(F)F)CC2)CC1 [compound 2]
[7]
  D2 inhibitory activity: no D2 inhibitory activity

## CCOC(=O)N1CCC(N2CCC(n3c(=O)[nH]c4ccccc43)CC2)CC1 [ethyl carbamate congener]
[1]
  % CCh Max at M2: 80.6%
[1]; read-out: M2 EC50
  EC50: 11.9 nM
[3]
  % CCh Max at M4: 96.9%
[3]; read-out: M4 EC50
  EC50: 9.1 nM
[4]
  % CCh Max at M5: 50.8%
[4]; read-out: M5 EC50
  EC50: 34.3 nM
